Laboratory results published in ChEMBL document CHEMBL1201862, “PubChem BioAssay data set” (2004).
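Grown in 96-well plates, cells were treated for 48 hours with each compound at five concentrations. Insufficient inhibition: endpoint recorded as highest concentration tested. GI50 = concentration required for 50% inhibition of growth.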 The source made the active and inactive calls. Cut-off read from the data, not from the text of the source: active = GI50 up to about 1.1 µM and inactive = higher. Non-standard residues stand in square brackets, D forms with d. Residues, ends and D or L forms follow the SMILES beside them. *: point of attachment. Ac5c = NC1(C(=O)O)CCCC1; Boc = CC(C)(C)OC(=O)*; tBu = CC(C)(C)*

Legend:
Experiment in all cases: NCI tumour cell line growth inhibition, 48 h
EKVX = system: EKVX
UACC-257 = system: UACC-257
A498 = system: A498
RXF 393 = system: RXF 393
OVCAR-3 = system: OVCAR-3
PC-3 = system: PC-3
A549 = system: A549
CAKI-1 = system: CAKI-1
NCI-H522 = system: NCI-H522
SF-295 = system: SF-295
MDA-MB-435 = system: MDA-MB-435
ACHN = system: ACHN
HCT-15 = system: HCT-15
HOP-62 = system: HOP-62
Malme-3M = system: Malme-3M
COLO 205 = system: COLO 205
OVCAR-8 = system: OVCAR-8
CCRF-CEM = system: CCRF-CEM
SW-620 = system: SW-620
HOP-92 = system: HOP-92

O=c1oc2ccc3ccccc3c2cc1-c1nnc(Nc2ccccc2)s1
GI50 (EKVX): 46.5 µM (inactive) | GI50 (UACC-257): > 100 µM (inactive) | GI50 (A498): 1.27 µM (inactive) | GI50 (RXF 393): 15.8 µM (inactive) | GI50 (OVCAR-3): 17.4 µM (inactive) | GI50 (PC-3): 17.1 µM (inactive) | GI50 (A549): 31.4 µM (inactive) | GI50 (CAKI-1): 34 µM (inactive) | GI50 (NCI-H522): 0.986 µM (active) | GI50 (SF-295): 65.3 µM (inactive) | GI50 (MDA-MB-435): 78.3 µM (inactive) | GI50 (ACHN): 13.2 µM (inactive) | GI50 (HCT-15): 51.6 µM

Cc1c(-c2ccccc2)c(C#N)c2nnc(C(N)=O)c(N)n12
GI50 (EKVX): > 100 µM (inactive) | GI50 (HOP-62): > 100 µM (inactive) | GI50 (UACC-257): > 100 µM (inactive) | GI50 (A498): > 100 µM (inactive) | GI50 (RXF 393): > 100 µM (inactive) | GI50 (OVCAR-3): > 100 µM (inactive) | GI50 (Malme-3M): > 100 µM (inactive) | GI50 (COLO 205): > 100 µM (inactive) | GI50 (PC-3): > 100 µM (inactive) | GI50 (A549): > 100 µM (inactive) | GI50 (OVCAR-8): > 100 µM (inactive) | GI50 (CAKI-1): > 100 µM (inactive) | GI50 (NCI-H522): > 100 µM (inactive) | GI50 (CCRF-CEM): > 100 µM (inactive) | GI50 (SW-620): > 100 µM (inactive) | GI50 (SF-295): > 100 µM (inactive) | GI50 (MDA-MB-435): > 100 µM (inactive) | GI50 (ACHN): > 100 µM (inactive) | GI50 (HCT-15): > 100 µM

CSc1nc(NC(C)C)c2c(n1)Sc1nc3ccccc3n1C2O (stereo not drawn)
GI50 (EKVX): 11.5 µM (inactive) | GI50 (HOP-62): 6.37 µM (inactive) | GI50 (UACC-257): 40.9 µM (inactive) | GI50 (RXF 393): 3.86 µM (inactive) | GI50 (OVCAR-3): 2.51 µM (inactive) | GI50 (Malme-3M): 1.98 µM (inactive) | GI50 (COLO 205): 1.65 µM (inactive) | GI50 (PC-3): 1.83 µM (inactive) | GI50 (A549): 3.41 µM (inactive) | GI50 (OVCAR-8): 4.9 µM (inactive) | GI50 (CAKI-1): 82.4 µM (inactive) | GI50 (NCI-H522): 2.28 µM (inactive) | GI50 (HOP-92): 89.5 µM (inactive) | GI50 (CCRF-CEM): 1.75 µM (inactive) | GI50 (SW-620): 2.27 µM (inactive) | GI50 (SF-295): 3.45 µM (inactive) | GI50 (MDA-MB-435): 1.74 µM (inactive) | GI50 (ACHN): 7.93 µM (inactive) | GI50 (HCT-15): 4.1 µM

O=S(=O)(Nc1ccc2ccc3cccc4ccc1c2c34)c1ccccc1
GI50 (EKVX): > 100 µM (inactive) | GI50 (HOP-62): 33.3 µM (inactive) | GI50 (UACC-257): 58.7 µM (inactive) | GI50 (RXF 393): > 100 µM (inactive) | GI50 (OVCAR-3): 8.26 µM (inactive) | GI50 (Malme-3M): 38.9 µM (inactive) | GI50 (COLO 205): 29.5 µM (inactive) | GI50 (PC-3): 14.3 µM (inactive) | GI50 (A549): 52.8 µM (inactive) | GI50 (OVCAR-8): > 100 µM (inactive) | GI50 (CAKI-1): 6 µM (inactive) | GI50 (NCI-H522): 4.27 µM (inactive) | GI50 (HOP-92): 4.84 µM (inactive) | GI50 (CCRF-CEM): 14.1 µM (inactive) | GI50 (SW-620): 30.1 µM (inactive) | GI50 (SF-295): 10.4 µM (inactive) | GI50 (MDA-MB-435): 3.82 µM (inactive) | GI50 (ACHN): 36.1 µM (inactive) | GI50 (HCT-15): 12.9 µM

O=C1/C(=C/c2ccc(Br)s2)NC(=S)N1CN1CCCCC1
GI50 (EKVX): 9.35 µM (inactive) | GI50 (HOP-62): 75 µM (inactive) | GI50 (UACC-257): 33.3 µM (inactive) | GI50 (A498): 22.9 µM (inactive) | GI50 (RXF 393): 21.1 µM (inactive) | GI50 (OVCAR-3): 22.4 µM (inactive) | GI50 (Malme-3M): 58.7 µM (inactive) | GI50 (COLO 205): 18.1 µM (inactive) | GI50 (PC-3): 28.2 µM (inactive) | GI50 (OVCAR-8): 33.3 µM (inactive) | GI50 (CAKI-1): 32.4 µM (inactive) | GI50 (NCI-H522): 23.3 µM (inactive) | GI50 (SW-620): 33 µM (inactive) | GI50 (SF-295): 30.5 µM (inactive) | GI50 (MDA-MB-435): 30 µM (inactive) | GI50 (ACHN): 46 µM (inactive) | GI50 (HCT-15): 27.9 µM

CCC1=CCC23C(=O)C=CC(=O)C2(C1)C(=O)c1cccc(OC)c1C3=O (stereo not drawn)
GI50 (EKVX): 13.2 µM (inactive) | GI50 (HOP-62): 22.7 µM (inactive) | GI50 (UACC-257): 16.3 µM (inactive) | GI50 (RXF 393): 6.38 µM (inactive) | GI50 (OVCAR-3): 10.1 µM (inactive) | GI50 (Malme-3M): 15.9 µM (inactive) | GI50 (COLO 205): 14.9 µM (inactive) | GI50 (PC-3): 14.9 µM (inactive) | GI50 (A549): 23.8 µM (inactive) | GI50 (OVCAR-8): 15.2 µM (inactive) | GI50 (CAKI-1): 13.1 µM (inactive) | GI50 (NCI-H522): 31.8 µM (inactive) | GI50 (HOP-92): 15.1 µM (inactive) | GI50 (CCRF-CEM): 3.26 µM (inactive) | GI50 (SW-620): 15.5 µM (inactive) | GI50 (SF-295): 24.3 µM (inactive) | GI50 (MDA-MB-435): 17.1 µM (inactive) | GI50 (ACHN): 14.3 µM (inactive) | GI50 (HCT-15): 18 µM

CC1(C)OC(=O)C2(O1)C(=O)C1CCCCC12 (stereo not drawn)
GI50 (EKVX): 21 µM (inactive) | GI50 (HOP-62): 62.8 µM (inactive) | GI50 (UACC-257): 40 µM (inactive) | GI50 (A498): 4.78 µM (inactive) | GI50 (RXF 393): 4.89 µM (inactive) | GI50 (OVCAR-3): > 100 µM (inactive) | GI50 (Malme-3M): 67.9 µM (inactive) | GI50 (COLO 205): 20.1 µM (inactive) | GI50 (PC-3): > 100 µM (inactive) | GI50 (A549): 26.9 µM (inactive) | GI50 (OVCAR-8): > 100 µM (inactive) | GI50 (CAKI-1): 10.2 µM (inactive) | GI50 (NCI-H522): 12 µM (inactive) | GI50 (CCRF-CEM): 8.97 µM (inactive) | GI50 (SW-620): > 100 µM (inactive) | GI50 (SF-295): > 100 µM (inactive) | GI50 (MDA-MB-435): > 100 µM (inactive) | GI50 (ACHN): > 100 µM (inactive) | GI50 (HCT-15): 86.9 µM

CCC1=NC(C(F)(F)F)(C(F)(F)F)N=C(/N=C(/N)N(C)C(C(C)C)P(=O)(OC(C)C)OC(C)C)O1 (stereo not drawn)
GI50 (EKVX): > 100 µM (inactive) | GI50 (HOP-62): > 100 µM (inactive) | GI50 (UACC-257): > 100 µM (inactive) | GI50 (A498): > 100 µM (inactive) | GI50 (RXF 393): > 100 µM (inactive) | GI50 (OVCAR-3): > 100 µM (inactive) | GI50 (Malme-3M): > 100 µM (inactive) | GI50 (COLO 205): > 100 µM (inactive) | GI50 (PC-3): > 100 µM (inactive) | GI50 (A549): > 100 µM (inactive) | GI50 (OVCAR-8): > 100 µM (inactive) | GI50 (CAKI-1): > 100 µM (inactive) | GI50 (NCI-H522): > 100 µM (inactive) | GI50 (CCRF-CEM): > 100 µM (inactive) | GI50 (SW-620): > 100 µM (inactive) | GI50 (SF-295): > 100 µM (inactive) | GI50 (MDA-MB-435): > 100 µM (inactive) | GI50 (ACHN): > 100 µM (inactive) | GI50 (HCT-15): > 100 µM

Cn1c2ccccc2c(=NNc2cccc(C(=O)O)c2)c2ccccc21
GI50 (EKVX): 5.57 µM (inactive) | GI50 (HOP-62): 12.7 µM (inactive) | GI50 (UACC-257): 28.5 µM (inactive) | GI50 (RXF 393): 6.38 µM (inactive) | GI50 (OVCAR-3): 3.57 µM (inactive) | GI50 (Malme-3M): 20.1 µM (inactive) | GI50 (COLO 205): 12.2 µM (inactive) | GI50 (PC-3): 4.92 µM (inactive) | GI50 (A549): 5.75 µM (inactive) | GI50 (OVCAR-8): 5.77 µM (inactive) | GI50 (CAKI-1): 25.1 µM (inactive) | GI50 (NCI-H522): 5.05 µM (inactive) | GI50 (HOP-92): 14.8 µM (inactive) | GI50 (CCRF-CEM): 6.41 µM (inactive) | GI50 (SW-620): 5.64 µM (inactive) | GI50 (SF-295): 16 µM (inactive) | GI50 (MDA-MB-435): 13.3 µM (inactive) | GI50 (ACHN): 5.85 µM (inactive) | GI50 (HCT-15): 15.3 µM

NC(=O)NCCCC(NC(=O)OCCCCCCn1ccc(=O)[nH]c1=O)C(=O)O (stereo not drawn)
GI50 (EKVX): > 100 µM (inactive) | GI50 (HOP-62): > 100 µM (inactive) | GI50 (UACC-257): > 100 µM (inactive) | GI50 (RXF 393): > 100 µM (inactive) | GI50 (OVCAR-3): > 100 µM (inactive) | GI50 (COLO 205): > 100 µM (inactive) | GI50 (PC-3): > 100 µM (inactive) | GI50 (A549): > 100 µM (inactive) | GI50 (OVCAR-8): > 100 µM (inactive) | GI50 (CAKI-1): > 100 µM (inactive) | GI50 (HOP-92): > 100 µM (inactive) | GI50 (CCRF-CEM): > 100 µM (inactive) | GI50 (SW-620): > 100 µM (inactive) | GI50 (SF-295): > 100 µM (inactive) | GI50 (MDA-MB-435): > 100 µM (inactive) | GI50 (ACHN): > 100 µM (inactive) | GI50 (HCT-15): > 100 µM

CC(OC(C)(C)C)C1NC(=O)C(CCCCNC(=O)OC(C)(C)C)NC(=O)C(Cc2c[nH]c3ccccc23)NC(=O)C(Cc2ccccc2)NC(=O)C2(CCCC2)NC(=O)C(Cc2ccccc2)NC1=O (stereo not drawn) (cyclo([Ac5c]FWK(Boc)T(tBu)F); configuration not given here)
GI50 (EKVX): 41.5 µM (inactive) | GI50 (HOP-62): 49.4 µM (inactive) | GI50 (UACC-257): 20.7 µM (inactive) | GI50 (RXF 393): 37.5 µM (inactive) | GI50 (OVCAR-3): 26 µM (inactive) | GI50 (Malme-3M): 27.3 µM (inactive) | GI50 (COLO 205): 20.4 µM (inactive) | GI50 (PC-3): 26.9 µM (inactive) | GI50 (OVCAR-8): 50.2 µM (inactive) | GI50 (CAKI-1): 42.9 µM (inactive) | GI50 (NCI-H522): 21.4 µM (inactive) | GI50 (HOP-92): 23.5 µM (inactive) | GI50 (CCRF-CEM): 28.2 µM (inactive) | GI50 (SW-620): 22.9 µM (inactive) | GI50 (SF-295): 29.9 µM (inactive) | GI50 (MDA-MB-435): 14.7 µM (inactive) | GI50 (ACHN): 32.4 µM (inactive) | GI50 (HCT-15): > 100 µM
